In US20150175585A1, “FUSED QUINONIC COMPOUNDS” (CENTRO ATLANTICO DEL MEDICAMENTO S.A (CEAMED, S.A.), priority 2012, published 2015):

Experiments:
HEL cells = experiment: HEL-based MTT cell viability assay; design: species or system human; conditions: Homo sapiens, 48 h, read-out: Activity (IC50, reduction of cell viability)
Experimental: Cell viability was assayed by measuring the mitochondrial reduction of the tetrazolium salt 3-(4,5-methyltiazol-2yl)-2,5diphenyl-tetrazolium bromide] (MTT) (Applichen; A2231,0010) (Mosmann T. J Immunol Methods. 1983 16; 65(1-2):55-63; Chuan Y-C et al 2010. Oncogene. 29 (10), 1531-1542. Cells were seeded in 96-well plates in medium supplemented with 10% FBS (Lonza Cat. No: 14-502F), 2 mM L-Glut (Lonza Cat. No: BE17-605E) and 100 U/ml PEST (Lonza Cat. No: DE17-605E) at a cell density of 5000-20000 cells/well. Cells were seeded at a density according to their exponential growth phase. Vehicle (0.05% DMSO) or drug were added to culture medium at the indicated concentrations (10 to 0.01 microM) during 48 h. Then, MTT (0.3 mg/ml) was added to cells following by incubation for 2-4 h at 37° C. in the dark. The medium was then discarded and the formazan precipitate was solubilized by addition of 20% SDS (Sigma; L-5750) in 0.02N HCl (Panreac; 131020.1611) for 12-16 h. The optical density was measured at 595 nm with the iMark Microplate Reader (BioRad, USA). Data was expressed as percent growth above the level in controls and the results in figures were plotted as means±SEM of each test point from 3 replicates.
Statistical analysis. The concentration of drug that provokes 50% reduction of cell viability (IC50) was determined by using non-linear regression analysis and data were fitted to a log concentration vs normalized response curve in GraphPad software v5 (San Diego, Calif.).

STAT5 = experiment: Epo induced STAT5 phosphorylation in HEL cells (Western immunoblotting); assay type: cell-based, human; conditions: serum deprived HEL cells; 5 μM for 0.5-3 h or 0.5-10 μM for 3 h; Epo 10 units/ml 5 min
Experimental: FIG. 1. • A) Overnight serum deprived HEL cells were stimulated with Epo (10 units/ml) for 5, 10, 20, 30, 45 and 60 min. JAK2, pYJAK2, STAT5 and pYSTAT5 were detected using Western immunoblotting as described in methods. B) Overnight serum deprived HEL cells were pre-incubated with compound 4 (C4) (5 μM) for 0.5, 1, 2, and 3 h, and subsequently stimulated with 10 units/ml Epo for 5 min. JAK2, pYJAK2, STAT5 and pYSTAT5 were detected using Western immunoblotting as described in methods. C) Overnight serum deprived HEL cells were pre-incubated with C4 at increasing concentrations (0.5-10 μM) for 3 h, and subsequently stimulated with 10 units/ml Epo for 5 min. JAK2, pJAK2, STAT5 and pSTAT5 were detected using Western immunoblotting as described in methods. […]
For total protein extraction, cells were scraped with RIPA 1× lysis buffer (25 mM Tris-HCl pH 7.6, 150 mM NaCl, 1% NP-40, 1% sodium deoxycholate, 0.1% SDS, no. 89900, Thermo Scientific, Rockford, Ill., USA) supplemented with 1× protease and 1× phosphatase inhibitor cocktails (100× Halt™ Protease Inhibitor Cocktail, no. 87786 and 100× Halt™ Phosphatase Inhibitor Cocktail, no. 78420, both from Thermo Scientific, Rockford, Ill., USA). An aliquot of each extract was preserved for protein quantification by bicinchoninic acid assay (Pierce® BCA Protein Assay Kit, no. 23225, Thermo Scientific, Rockford, Ill., USA). […]

For `N#Cc1ccc(C2C3=C(CCCC3=O)OC3=C2C(=O)c2ccccc2C3=O)cc1` (centres unmarked) [Compound 4, 4-(1,6,11-trioxo-2,3,4,6,11,12-hexahydro-1H-benzo[b]xanthen-12-yl)benzonitrile], the IC50 (HEL cells) was < 3000 nM and the “Epo-induced phosphorylation of STAT5” value (STAT5) was “inhibits, in a time/dose dependent manner”.
